Assay results: patent publication US11613533B2, “Compounds useful for inhibiting RET kinase” (Eli Lilly and Company, priority 2020, dated 2023)

Experiments:
[1] = molecular target: T1, KIF5B-RET mutant form V804M in HEK293 cells (Homo sapiens, UniProt P07949, V804M); assay: RET cell assay (In-Cell Western, phospho-RET Y1062), V804M; type: cell-based; settings: HEK293, doxycycline-induced KIF5B-RET V804M, 1 hr compound treatment; read-out: EC50, inhibition of intracellular autophosphorylation of RET at tyrosine 1062, V804M cells
T1 construct: expressed in transfected cells; host or cells: HEK293; the other entry of the earlier key: KIF5B (P33176, Kinesin-1 heavy chain)
T1 sequence (P07949 713-1063 V804M limits assumed): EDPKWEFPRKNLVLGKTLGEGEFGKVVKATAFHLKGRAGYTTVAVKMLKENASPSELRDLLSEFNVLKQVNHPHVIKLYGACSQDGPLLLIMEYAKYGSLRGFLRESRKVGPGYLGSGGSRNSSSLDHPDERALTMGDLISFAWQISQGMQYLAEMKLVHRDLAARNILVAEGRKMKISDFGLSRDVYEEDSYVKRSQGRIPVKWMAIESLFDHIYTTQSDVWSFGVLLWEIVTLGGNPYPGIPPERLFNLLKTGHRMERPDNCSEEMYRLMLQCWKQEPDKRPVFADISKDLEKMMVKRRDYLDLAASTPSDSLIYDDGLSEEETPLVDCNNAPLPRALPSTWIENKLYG
Protocol: Compounds of formulas (I), (II), and (III) are screened for their ability to inhibit the intracellular autophosphorylation of RET at tyrosine 1062 as detected by In-Cell Western. HEK293 cells containing a doxycycline-inducible plasmid for inducible expression of KIF5B-RET WT and RET mutant forms V804M and G810S are seeded at 25,000 cells/well into black poly-D-lysine pre-coated 384-well plates (Corning, Catalog No. 356697). Expression of KIF5B-RET is induced with doxycycline at 1 μg/mL and cells are incubated at 37° C. overnight. Compounds are prepared in a threefold serial dilution in DMSO before further diluting 1:100 in media prior to the addition to the cells (0.1% final DMSO concentration). Compound treatment is performed for 1 hr at 37° C. followed by fixation of cells with 4% formaldehyde for 20 min at RT and cell permeabilisation with ice-cold MeOH for 10 min at RT. Cells are incubated with Intercept® blocking buffer (Li—COR, Catalogue No. 927-70010) for 1 hr at RT. Incubation with primary antibodies against human phospho-RET (Y1062) (R&D, Catalogue No. AF5009, 1/250 dilution) and human glyceraldehyde-3-phosphate dehydrogenase (clone 6C5, Merck, Catalog No. MAB374, 1/1000 dilution) are performed overnight at 4° C. Incubation with secondary antibodies IRDye® 800CW goat anti-rabbit IgG (Li—COR, Catalogue No. 926-32211, 1/1000 dilution) and IRDye® 680CW goat anti-mouse IgG (Li—COR, Catalogue No. 926-68070, 1/1000 dilution) are performed for 1 hr at RT. All antibody dilutions are done in Intercept® blocking buffer containing 0.05% Tween20. After washing cells with PBS-T (Cell Signaling technology, Catalogue No. 9809), the images are acquired on a Li—COR Odyssey LCx at 700 and 800 nm. Percent of DMSO control is calculated with 100% signal referring to control conditions containing no compound (0.4% DMSO only) and 0% signal represented by conditions containing control compound. The % of DMSO control values are fit to a 4 parameter logistic curve, and the determined EC50 value is defined as the estimated concentration of inhibitor at the inflexion point of the fitted curve.

[2] = molecular target: T2, V804M mutant RET kinase (N-terminal GST tagged recombinant human V804M mutant RET cytoplasmic domain, aa 658-end) (Homo sapiens, UniProt P07949, V804M); assay: RET enzyme assay (HTRF KinEASE TK), V804M; type: biochemical; settings: 1 mM ATP, 40 min incubation at 22° C.
T2 construct: human V804M mutant RET cytoplasmic domain (aa 658-end); GST (N); purchased Millipore 14-760
T2 sequence (P07949 658-1114 V804M limits assumed): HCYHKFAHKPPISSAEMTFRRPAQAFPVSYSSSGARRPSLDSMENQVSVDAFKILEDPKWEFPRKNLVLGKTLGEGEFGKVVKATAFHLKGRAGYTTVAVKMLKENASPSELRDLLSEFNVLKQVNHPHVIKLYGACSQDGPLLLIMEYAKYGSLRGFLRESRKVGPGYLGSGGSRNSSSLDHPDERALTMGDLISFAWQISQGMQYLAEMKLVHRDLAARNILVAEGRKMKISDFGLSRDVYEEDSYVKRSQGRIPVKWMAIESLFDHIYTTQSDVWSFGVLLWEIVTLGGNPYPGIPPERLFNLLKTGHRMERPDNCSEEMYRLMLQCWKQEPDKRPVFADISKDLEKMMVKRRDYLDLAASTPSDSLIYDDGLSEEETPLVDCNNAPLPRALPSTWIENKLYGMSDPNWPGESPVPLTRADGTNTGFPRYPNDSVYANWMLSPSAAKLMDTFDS
Protocol: Assay A: RET Enzyme Assay
Compounds of formulas I, II, or III are screened for their ability to inhibit wildtype, V804M, and G810S mutant RET kinase using CisBio's HTRF® KinEASE™TK assay technology. N-terminal GST tagged recombinant human RET cytoplasmic domain (aa 658-end) from Eurofins ([…]; Catalog No. 14-570M) or N-terminal GST tagged recombinant human V804M mutant RET cytoplasmic domain (aa 658-end) from Millipore (1.25 nM enzyme; Catalog No. 14-760) or N-Terminal GST-tagged recombinant human G810S (aa-658-end) (1.25 nM Enzyme; produced in insect cells) is incubated with 62.5 nM TK-substrate biotin (CisBio, part of Catalog No. 62TK0PEC) and 1 mM ATP along with test compound (0.4% final DMSO in the assay) in a 1× Cisbio enzymatic buffer consisting of […], 5 mM MgCl2, 0.04% BSA and 0.05% Tween20 in a volume of 10 μL. Compounds are typically prepared in a threefold serial dilution in DMSO and added to the assay to give the appropriate final concentration. After a 40-60 min (40 min for V804M, 60 min for WT and G810S) incubation at 22° C., the reaction is quenched by adding quench solution (10 μL) containing 7.8 nM Streptavidine-XL665 and 0.5×TK-ab-Cryptate in HTRF detection buffer (all from CisBio, part of Cat. No. 62TK0PEC). After a 60-80 min incubation (60 minutes for WT, 80 minutes for V804M and G810S) at 22° C., the extent of reaction is determined using a PHERastar plate reader via HTRF detection at excitation/emission 337/665 nm. Percent of inhibition is calculated with 0% inhibition referring to control conditions containing no compound (0.4% DMSO only) and 100% inhibition represented by conditions containing no enzyme. The % inhibition values are fit to a 4 parameter logistic curve, and the determined IC50 value is defined as the estimated concentration of inhibitor at the inflexion point of the fitted curve.

Structure (SMILES) | EC50 [1] | IC50 [2]
CC(C(=O)Nc1cc(CC(C)(C)C)no1)c1ccc(-c2nn(C(C)C)c(N)c2C(N)=O)cc1 (single isomer, unassigned; isomer 1) [Example 1, 5-Amino-3-[4-(1-[[3-(2,2-dimethylpropyl)-1,2-oxazol-5-yl]carbamoyl]ethyl)phenyl]-1-isopropylpyrazole-4-carboxamide, Isomer 1] | < 100 nM | < 100 nM
CCC(C)(C)c1cc(NC(=O)C(C)c2ccc(-c3nn(C(C)C)c(N)c3C(N)=O)cc2)on1 (single isomer, unassigned; isomer 1) [Example 15, 5-Amino-1-isopropyl-3-[4-(1-[[3-(2-methylbutan-2-yl)-1,2-oxazol-5-yl]carbamoyl]ethyl)phenyl]pyrazole-4-carboxamide, Isomer 1] | < 100 nM | < 100 nM
CC(C(=O)Nc1cc(C(C)(C)C(F)(F)F)no1)c1ccc(-c2nn(C(C)C)c(N)c2C(N)=O)cc1 (single isomer, unassigned; isomer 1) [Example 17, 5-Amino-1-isopropyl-3-[4-(1-[[3-(1,1,1-trifluoro-2-methylpropan-2-yl)-1,2-oxazol-5-yl]carbamoyl]ethyl)phenyl]pyrazole-4-carboxamide, Isomer 1] | < 100 nM | < 100 nM
CC(C(=O)Nc1cc(C2(C)CC2)no1)c1ccc(-c2nn(C(C)C)c(N)c2C(N)=O)cc1 (single isomer, unassigned; isomer 1) [Example 35, 5-Amino-1-isopropyl-3-[4-(1-[[3-(1-methylcyclopropyl)-1,2-oxazol-5-yl]carbamoyl]ethyl)phenyl]pyrazole-4-carboxamide, Isomer 1] | < 100 nM | < 100 nM
CC(C(=O)Nc1cc(-c2ccc(Cl)cc2Cl)no1)c1ccc(-c2nn(C(C)C)c(N)c2C(N)=O)cc1 (single isomer, unassigned; isomer 1) [Example 45, 5-Amino-3-[4-(1-[[3-(2,4-dichlorophenyl)-1,2-oxazol-5-yl]carbamoyl]ethyl)phenyl]-1-isopropylpyrazole-4-carboxamide, Isomer 1] | < 100 nM | < 100 nM
CC(C(=O)Nc1cc(C(C)(C)C(F)(F)F)on1)c1ccc(-c2nn(C(C)C)c(N)c2C(N)=O)cc1 (single isomer, unassigned; isomer 1) [Example 81, 5-Amino-1-isopropyl-3-[4-(1-[[5-(1,1,1-trifluoro-2-methylpropan-2-yl)-1,2-oxazol-3-yl]carbamoyl]ethyl)phenyl]pyrazole-4-carboxamide, Isomer 1] | < 100 nM | < 100 nM
CC(C(=O)Nc1cc(C2CC(C)(C)C2)no1)c1ccc(-c2nn(C(C)C)c(N)c2C(N)=O)cc1 (single isomer, unassigned; isomer 1) [Example 98, 5-Amino-3-[4-[2-[[3-(3,3-dimethylcyclobutyl)isoxazol-5-yl]amino]-1-methyl-2-oxo-ethyl]phenyl]-1-isopropyl-pyrazole-4-carboxamide, Isomer 1] | < 100 nM | < 100 nM
CCC(C)(C)c1cc(NC(=O)C(C)c2ccc(-c3nn(C(C)C)c(N)c3C(N)=O)cc2)no1 (single isomer, unassigned; isomer 2) [Example 52, 5-Amino-1-isopropyl-3-[4-(1-[[5-(2-methylbutan-2-yl)-1,2-oxazol-3-yl]carbamoyl]ethyl)phenyl]pyrazole-4-carboxamide, Isomer 2] | < 100 nM | < 100 nM
CC(C(=O)Nc1cc(C(C)(C)C(F)(F)F)on1)c1ccc(-c2nn(C(C)C)c(N)c2C(N)=O)nc1 (single isomer, unassigned; isomer 2) [Example 64, 5-Amino-1-isopropyl-3-[5-(1-[[5-(1,1,1-trifluoro-yl)-1,2-oxazol-3-2-methylpropan-2-yl]carbamoyl]ethyl)pyridin-2-yl]pyrazole-4-carboxamide, Isomer 2] | < 100 nM | < 100 nM
CCC(C)(C)c1cc(NC(=O)C(C)c2ccc(-c3nn(C(C)C)c(N)c3C(N)=O)nc2)no1 (single isomer, unassigned; isomer 2) [Example 66, 5-Amino-1-isopropyl-3-[5-(1-[[5-(2-methylbutan-2-yl)-1,2-oxazol-3-yl]carbamoyl]ethyl)pyridin-2-yl]pyrazole-4-carboxamide, Isomer 2] | < 100 nM | < 100 nM
CC(C(=O)Nc1cc(C(C)(C)CC(F)(F)F)on1)c1ccc(-c2nn(C(C)C)c(N)c2C(N)=O)nc1 (single isomer, unassigned; isomer 2) [Example 68, 5-Amino-1-isopropyl-3-(5-(1-oxo-1-((5-(4,4,4-trifluoro-2-methylbutan-2-yl)isoxazol-3-yl)amino)propan-2-yl)pyridin-2-yl)-1H-pyrazole-4-carboxamide, Isomer 2] | < 100 nM | < 100 nM
CC(C(=O)Nc1cc(C(C)(C)C(C)(F)F)on1)c1ccc(-c2nn(C(C)C)c(N)c2C(N)=O)nc1 (single isomer, unassigned; isomer 2) [Example 70, 5-Amino-3-[5-(1-[[5-(3,3-difluoro-2-methylbutan-2-yl)-1,2-oxazol-3-yl]carbamoyl]ethyl)pyridin-2-yl]-1-isopropylpyrazole-4-carboxamide, Isomer 2] | < 100 nM | < 100 nM
